Data reported in patent publication US20260226006A1, “INDOLE COMPOUND, PREPARATION METHOD THEREFOR AND USE THEREOF” (SUZHOU MERNA THERAPEUTICS CO. LTD, priority 2023, published 2026).

Assays:
paw plantar skin of rats = assay: Rat models with hand-foot skin reaction, topical ointment (Example 22); format: in vivo, SD rats; conditions: for Incidence rate (successful modeling rate for hand-foot skin reaction): modeling drug alone by gavage once daily, no ointment, SD rats, 30 days
Description: After adaptive feeding for one week, SD rats (with a body weight of approximately 200 g) were randomly divided into groups according to the body weight, with 12 rats in each group. Modeling drugs (including sorafenib, erlotinib, afatinib, and osimertinib) were respectively dissolved in a solution containing 5% of DMSO, 45% of PEG400, and 50% of H2O, and the modeling drugs were diluted to required concentrations and then administered once daily by gavage at doses shown in Table 3. After administration by gavage for 1 hour, 0.05 g of ointments containing different mass proportions of test compounds were evenly applied to left paws of the rats, a blank matrix ointment was applied to right paws of the rats to serve as a self-control, and no ointment was applied to the rats in a blank control group. After drug application, four limbs were continuously immobilized for 2 hours, then wiped with clean water to remove the residual drugs, removed from immobilization, and restored to free movement. The modeling drugs, the blank matrix ointment, and the ointments containing the test compounds were all administered once daily. After continuous administration for 30 days, the rats were euthanized, and paw plantar skin tissues were collected, fixed in 10% neutral formalin, […]. The ointments for the test compounds were prepared by mixing the compounds, white beeswax, white petrolatum, and light liquid paraffin in specific ratios (weight ratios of 3 ointments were respectively 1:18:58:23, 3:18:57:22, and 10:20:40:30). The blank matrix ointment was prepared by mixing white beeswax, white petrolatum, and light liquid paraffin in a specific ratio (weight ratio of 18:60:22).
Tissue staining: After dewaxing and rehydration, the paw plantar skin tissue sections of the above rats were stained in a hematoxylin solution for several minutes, cleaned, and placed in 1% acid alcohol for soaking until the sections faded to light blue-red. After cleaning with running water for 5 minutes, the sections were stained with eosin for 2-3 minutes, cleaned to remove excess dyes, dehydrated, then permeabilized by adding xylene for several minutes, and sealed and fixed with a neutral resin. The stratum corneum was observed under an optical microscope, and the thickness of the epidermal stratum corneum was measured using Dmetrix software.
Immunohistochemical staining: After dewaxing and hydration, the paw plantar skin tissue sections of the above rats were incubated with 3% H2O2 at room temperature for 30 minutes and blocked with 10% goat serum for 30 minutes after antigen retrieval. A KRT1 antibody (Abcam, ab93652) and a Loricrin antibody (Abcam, ab183646) were added dropwise, the sections were incubated overnight at 4° C., and an HRP secondary antibody (ZSGB-BIO, PV-6001) and a DAB kit (ZSG-BIO, ZLI9017) were added for color development. The sections were re-stained with hematoxylin, cleaned, and sealed and fixed with a neutral resin, and the expression amounts of KRT1 and Loricrin were observed under an optical microscope.
An incidence rate calculation method involves a proportion of animals in each group meeting the above criteria for determining successful modeling, that is, incidence rate=(number of successfully modeled rats/total number of rats in the group)*100%. […]

HaCat cells = assay: m6A methylation level of human HaCat keratinocytes, EpiQuik m6A RNA methylation quantification kit (Example 20); format: cell-based; conditions: HaCat cells, 24 hours
Description: HaCat cells were cultured in a DMEM culture medium containing 10% fetal bovine serum, 100 U/mL penicillin, and 100 μg/mL streptomycin. Culture dishes were placed in an incubator containing 5% CO2 for culture at 37° C. for 24 hours. An equal volume of DMSO was added in control group 1, 50 nM sorafenib, capecitabine, docetaxel, and osimertinib were respectively added in control groups A, B, C, and D, and 400 nM test compounds or nicotinamide were respectively added in sample groups A1-17, B1-17, C1-17, and D1-17 after the addition of 50 nM corresponding compounds. The cells were continuously cultured for 24 hours, washed with PBS, and then collected by high-speed centrifugation. Total RNA was extracted using a Trizol reagent (Sigma Aldrich), and RNA m6A methylation of a sample was quantitatively detected using an EpiQuik m6A RNA methylation quantification kit. The concentrations of positive control samples for a standard curve were 0.01 ng/μl, 0.02 ng/μl, 0.05 ng/μl, 0.1 ng/μl, 0.2 ng/μl, and 0.5 ng/μl. The absorbance at 450 nm was read using a microplate reader (Tecan GENios). A quantitative calculation formula for m6A is as follows:
m6A (ng)=(absorbance of sample well−absorbance of background well)/slope of standard curve m6A (%)=m6A (ng)/RNA amount of sample (ng)*100%.

HaCaT keratinocytes = assay: Inhibition of HBEGF-induced differentiation of HaCaT keratinocytes, marker mRNA by RT-PCR (Example 21); format: cell-based, human; conditions: 2.5 ng/mL human recombinant HBEGF protein + test compound, 24 hours
Description: Human HaCaT keratinocytes were cultured in a DMEM culture medium containing 10% fetal bovine serum, 100 U/mL penicillin, and 100 µg/mL streptomycin. The cells were seeded into a 96-well plate at a density of […] and placed in an incubator containing 5% carbon dioxide for culture at 37° C. for 24 hours. An equal volume of DMSO was added into control well 1, a 2.5 ng/mL human recombinant HBEGF protein (Abcam, ab205523) was added into control well 2, and a 2.5 ng/mL human recombinant HBEGF protein and corresponding concentrations of test compounds were added into sample wells. The cells were continuously cultured for 24 hours, washed with PBS, and then collected by high-speed centrifugation. Total RNA was extracted using a Trizol reagent (Sigma Aldrich). 1 μg of RNA was reverse-transcribed into cDNA using a cDNA reverse transcription kit (Transgene Biotech, AT311-03). 1.25 μL of a primer (with a primer sequence shown in Table 2), 10 μL of an iTag Universal SYBR Green supermix (Bio-Rad, 172-S125), and an appropriate amount of DEPC ultrapure water were added to formulate 20 μL of a reaction solution to perform an RT-PCR reaction. Upon completion of the reaction, the reaction solution was subjected to agarose gel electrophoresis to determine the mRNA expression amounts of keratinocyte differentiation markers KRT1, KRT10, Loricrin, and Involucrin.

[1] = successfully modeled rats, modeling drug
[2] = 50 nM capecitabine + 400 nM test compound
[3] = 50 nM docetaxel + 400 nM test compound
[4] = 50 nM osimertinib + 400 nM test compound
[5] = 50 nM sorafenib + 400 nM test compound

Compound: CN(C)C/C=C/C(=O)Nc1cc2c(Nc3ccc(F)c(Cl)c3)ncnc2cc1O[C@H]1CCOC1 [Afatinib, afatinib, reference compound]
- Incidence rate (successful modeling rate for hand-foot skin reaction) (paw plantar skin of rats): 8/12 (66.7%)
- Incidence rate (successful modeling rate for hand-foot skin reaction) (paw plantar skin of rats; listed as afatinib): 66.7%
- KRT1 and Loricrin in tissues (immunohistochemical staining) (paw plantar skin of rats; [1]): significantly increased
- stratum corneum thickness of the paw plantar skin (paw plantar skin of rats; [1]): significantly higher than that of normal rats

Compound: NC(=O)C1c2[nH]c3ccc(Cl)cc3c2C2CCC1C2 (centres unmarked) [Compound 5, 2-chloro-5,6,7,8,9,10-hexahydro-7,10-methanocyclohepta[b]indole-6-carboxamide]
- m6A fold change relative to control group 1 (HaCat cells; [2]): 3.0
- m6A fold change relative to control group 1 (HaCat cells; [3]): 2.9
- m6A fold change relative to control group 1 (HaCat cells; [4]): 3.1
- m6A fold change relative to control group 1 (HaCat cells; [5]): 2.4

Compound: NC(=O)C1CCC(F)c2c1[nH]c1ccc(Cl)cc21 (centres unmarked) [Compound 7, 6-chloro-4-fluoro-2,3,4,9-tetrahydro-1H-carbazole-1-carboxamide]
- m6A fold change relative to control group 1 (HaCat cells; [2]): 3.9
- m6A fold change relative to control group 1 (HaCat cells; [3]): 3.4
- m6A fold change relative to control group 1 (HaCat cells; [4]): 2.9
- m6A fold change relative to control group 1 (HaCat cells; [5]): 3.3

Compound: CC1CCC(C(N)=O)c2[nH]c3ccc(Cl)cc3c21 (centres unmarked) [Compound 6, 6-chloro-4-methyl-2,3,4,9-tetrahydro-1H-carbazole-1-carboxamide]
- m6A fold change relative to control group 1 (HaCat cells; [2]): 3.2
- m6A fold change relative to control group 1 (HaCat cells; [3]): 5.1
- m6A fold change relative to control group 1 (HaCat cells; [4]): 3.5
- m6A fold change relative to control group 1 (HaCat cells; [5]): 3.4

Compound: NC(=O)C1c2[nH]c3ccc(Cl)cc3c2C2CCC1C2 [Compound 5b, (R)-2-chloro-5,6,7,8,9,10-hexahydro-7,10-methanocyclohepta[b]indole-6-carboxamide]
- m6A fold change relative to control group 1 (HaCat cells; [2]): 4.8
- m6A fold change relative to control group 1 (HaCat cells; [3]): 4.8
- m6A fold change relative to control group 1 (HaCat cells; [4]): 5.0
- m6A fold change relative to control group 1 (HaCat cells; [5]): 3.8

Compound: NC(=O)[C@@H]1CCCc2c1[nH]c1ccc(Cl)cc21 [Compound 2a, (R)-6-chloro-2,3,4,9-tetrahydro-1H-carbazole-1-carboxamide]
- m6A fold change relative to control group 1 (HaCat cells; [2]): 3.5
- m6A fold change relative to control group 1 (HaCat cells; [3]): 5.6
- m6A fold change relative to control group 1 (HaCat cells; [4]): 3.2
- m6A fold change relative to control group 1 (HaCat cells; [5]): 3.4

Compound: CN1CC[C@@H](C(N)=O)c2[nH]c3ccc(Cl)cc3c21 [Compound 8a, (R)-8-chloro-1-methyl-2,3,4,5-tetrahydropyrido[3,2-b]indole-4-carboxamide]
- m6A fold change relative to control group 1 (HaCat cells; [2]): 2.4
- m6A fold change relative to control group 1 (HaCat cells; [3]): 4.8
- m6A fold change relative to control group 1 (HaCat cells; [4]): 3.2
- m6A fold change relative to control group 1 (HaCat cells; [5]): 4.0

Compound: C#Cc1cccc(Nc2ncnc3cc(OCCOC)c(OCCOC)cc23)c1 [Erlotinib, erlotinib, reference compound]
- KRT1 and Loricrin in tissues (immunohistochemical staining) (paw plantar skin of rats; rat, in vivo): significantly increased
- stratum corneum thickness of the paw plantar skin (paw plantar skin of rats; rat, in vivo): significantly higher than that of normal rats

Compound: NC(=O)C1CCCc2c1[nH]c1ccc(F)cc21 (centres unmarked) [Compound 1, 6-fluoro-2,3,4,9-tetrahydro-1H-carbazole-1-carboxamide]
- m6A fold change relative to control group 1 (HaCat cells; [2]): 3.0
- m6A fold change relative to control group 1 (HaCat cells; [3]): 3.2
- m6A fold change relative to control group 1 (HaCat cells; [4]): 3.4
- m6A fold change relative to control group 1 (HaCat cells; [5]): 2.9

Compound: NC(=O)C1CCCc2c1[nH]c1cc(Nc3ccccc3)c(Cl)cc21 (centres unmarked) [Compound 9, 6-chloro-7-phenylamino-2,3,4,9-tetrahydro-1H-carbazole-1-carboxamide]
- m6A fold change relative to control group 1 (HaCat cells; [2]): 3.9
- m6A fold change relative to control group 1 (HaCat cells; [3]): 3.9
- m6A fold change relative to control group 1 (HaCat cells; [4]): 4.0
- m6A fold change relative to control group 1 (HaCat cells; [5]): 3.5

Compound: NC(=O)C1CCCc2c1[nH]c1ccc(Cl)c(F)c21 (centres unmarked) [Compound 3a, 6-chloro-5-fluoro-2,3,4,9-tetrahydro-1H-carbazole-1-carboxamide]
- mRNA expression amounts of HaCaT differentiation markers KRT1, KRT10, Loricrin, and Involucrin (HaCaT keratinocytes): significantly inhibited
- m6A fold change relative to control group 1 (HaCat cells; [2]): 2.8
- m6A fold change relative to control group 1 (HaCat cells; [3]): 4.2
- m6A fold change relative to control group 1 (HaCat cells; [4]): 2.9
- m6A fold change relative to control group 1 (HaCat cells; [5]): 3.3

Compound: NC(=O)C1CCCc2c1[nH]c1cc(F)c(Cl)c(F)c21 (centres unmarked) [Compound 4, 6-chloro-5,7-difluoro-2,3,4,9-tetrahydro-1H-carbazole-1-carboxamide]
- m6A fold change relative to control group 1 (HaCat cells; [2]): 3.2
- m6A fold change relative to control group 1 (HaCat cells; [3]): 5.1
- m6A fold change relative to control group 1 (HaCat cells; [4]): 4.2
- m6A fold change relative to control group 1 (HaCat cells; [5]): 3.6

Compound: CN1CCC(C(N)=O)c2[nH]c3ccc(Cl)cc3c21 (centres unmarked) [Compound 8, 8-chloro-1-methyl-2,3,4,5-tetrahydropyrido[3,2-b]indole-4-carboxamide]
- m6A fold change relative to control group 1 (HaCat cells; [2]): 1.7
- m6A fold change relative to control group 1 (HaCat cells; [3]): 3.0
- m6A fold change relative to control group 1 (HaCat cells; [4]): 2.1
- m6A fold change relative to control group 1 (HaCat cells; [5]): 2.5

Compound: NC(=O)C1CCCc2c1[nH]c1cc(F)c(Cl)cc21 (centres unmarked) [Compound 3b, 6-chloro-7-fluoro-2,3,4,9-tetrahydro-1H-carbazole-1-carboxamide]
- mRNA expression amounts of HaCaT differentiation markers KRT1, KRT10, Loricrin, and Involucrin (HaCaT keratinocytes): significantly inhibited
- m6A fold change relative to control group 1 (HaCat cells; [2]): 2.9
- m6A fold change relative to control group 1 (HaCat cells; [3]): 3.2
- m6A fold change relative to control group 1 (HaCat cells; [4]): 3.1
- m6A fold change relative to control group 1 (HaCat cells; [5]): 3.3
